Laboratory results reported in patent US20020177625A1, “Class of glaucoma drugs to enhance aqueous humor outflow and lower intra-ocular pressure” (The Regents of the University of California, a California …, priority 2001, published 2002).
Entries after “also recorded” stand apart in the source; their conditions may differ.

Tests used:
human TM cells [1] = experiment: Whole cell patch clamp ion conductances of human TM cells; type: cell-based
Experimental: Further studies conducted with agents known to block Cl and K channels attenuate the swelling-activated regulatory volume decrease in TM cells and niflumic acid reduces both cell volume and intracellular [Cl] of TM cells. In these studies, human TM cells were cultured from donor eyes and used between passages three and eight. Routine whole cell patch clamp methods were used to assess conductances of TM cells in isotonic (290 mOsm) and hypotonic (230 mOsm) media, with or without NPPB, DIDS, TEA or niflumic acid. Conductances were determined from current/voltage plots, generated using a ramp protocol. […] The reversal potential observed in the presence of hypotonic medium was close to the calculated reversal potential for Cl. Switching to an external medium containing reduced Cl shifted the reversal potential toward that calculated for the low Cl medium. Treating the TM cells with the Cl channel blocker NPPB (100 μM) abolished the swelling-activated conductance in a manner reversed by subsequent washout of NPPB. […] Finally, treatment of the cells with the K channel blocker TEA (1 mM) also abolished the niflumic acid-activated TM cell conductance.
Human TM and SC cells grown to subconfluence are gently trypsinized on the day of the experiment and immediately exposed to trypsin-neutralizing solution and then allowed to settle onto standard square (22×22-mm) glass coverslips for 30 minutes before use. Routine patch clamp methods were used as described previously Barakat, A. I., et al., Circulation Research, 85: 820-828, 1999; Hamill, O. P. et al., Pflügers Archives, 391: 85-100, 1981; Mauro, T. et al., J of Invest. Dermatology, 105: 203-208, 1995; Pappone, P. A. et al., J. of Physiology, 306:377-410, 1980; Pappone, P. A. et al., J of Gen. Physiology, 106: 231-258, 1995; Pappone, P. A. et al., Amer. J. of Physiology: Cell Physiology, 264: C1014-C1019, 1993; Wilson, S. M. et al., J. of Gen. Physiology, 113: 125-138, 1999. Using the whole cell patch clamp mode, conductances were assessed for isotonic and hypotonic media. By assessing current/voltage (I/V) relationships and reversal potentials for the TM and SC cells while using specific concentrations of Cl in the pipette and bath media, the nature of the conductances observed can be determined.
Whole cell currents were measured at room temperature in a Warner recording/perfusion chamber (Warner Instrument Corp.) using standard whole-cell patch clamp techniques as described previously, Lucero, M. T. et al., J. of Gen. Physiology, 95:523-544, 1999. Thick-walled borosilicate capillaries (Sutter Instruments, Inc., Novato, Calif.) were used to manufacture pipettes with resistances of 3 to 5 MW. The voltage offset between the patch pipette and the bath solution were nulled immediately before patch formation. An agar bridge containing […] KCl was used to ground the bath solution. Voltages were recorded from a patch-clamp amplifier (AXOPATCH 200A, Axon Instruments). Data was collected on a Macintosh personal computer using Pulse+Pulsefit software (HEKA Elektronik). Whole-cell currents were recorded from single (sub confluent) cells with membrane capacitances nulled through the patch-clamp amplifier. The voltage ramp protocol included a voltage step from the holding potential to +60 mV for 40 ms followed by a ramp to −100 mV over a period of 400 ms followed by a return to the holding potential. During the protocol, voltage ramps were conducted once every 5 seconds for 10 minutes, yielding 120 traces. Conductances were computed by taking the derivative of a least-squares straight line fit to the I-V data plots using Igor Pro Software (Wavemetrics, Inc.). In cases in which the I-V plots are not linear over the entire voltage ramp (as in FIGS. 6AB), computation of the whole-cell conductance were restricted to a linear range, typically 0 to +60 mV. […]

human TM cells [2] = experiment: Intracellular volume of human TM cells (14C-urea/14C-sucrose water space or COULTER COUNTER electronic cell sizing), isotonic medium; type: cell-based; settings: human TM cells
Experimental: The intracellular volume of human and bovine TM cells was evaluated by two methods: 1) radioisotopic evaluation of TM monolayer intracellular water space using ^14C-urea and ^14C-sucrose as markers of total and extracellular space, respectively; and 2) electronic cell sizing of suspended TM cells, using a COULTER COUNTER™ assay (Coulter Electronics, Ltd., Hialeah, Fla.). Details of these methods have been described previously by O'Donnell (O'Donnell, M. E., supra, 1993) the entirety of which is incorporated herein by reference.
By the first method, cell monolayers were preequilibrated for 30 minutes in Hepes MEM at 37° C. in an air atmosphere, then incubated for 20 minutes in Hepes MEM containing 0 or 10 μM bumetamide, ethacrynic acid, or other agents to be tested, and finally incubated for 10 minutes in the same medium containing either ^14C-urea or ^14C-sucrose (both at 1 μCi/ml). Monolayers were then rinsed with isotonic ice-cold MgCl2 and radioactivity of SDS extracts determined by liquid scintillation. Specific activities (counts per minute/ml) of ^14C-urea and ^14C-sucrose in the assay medium were determined and used to calculate water space associated with trapped radioactivity (expressed as μl/mg protein. Intracellular volume was calculated as the difference between the water space determined for ^14C-urea (a marker for intracellular plus trapped extracellular space) and ^14C-sucrose (a marker for trapped extracellular space).
By the second method, TM cells were trypsinized briefly in Ca-free medium, then rinsed with medium containing trypsin inhibitor and suspended in Hepes MEM. Mean cell volumes were then analyzed by electronic cell sizing on a COULTER COUNTER™ radioassay (Model ZM) with channelizer (C256), using at least 50,000 cells per data point and an orifice diameter of 140 μm. Aliquots of suspended cells were diluted into Hepes MEM containing the tonicity and/or agents to be evaluated. Mean cell volumes of each suspension aliquot were followed over time, starting at 1 minute after addition of cells to the assay media. Cell suspensions were maintained at 37° C. throughout the assay period. Absolute volumes (picoliters/cell) were calculated from distribution curves of cell diameter, using a standard curve generated by polystyrene latex beads of known diameter.
Human TM cells were exposed to isotonic medium ±niflumic acid (10 or 100 μM)±10 μM bumetamide. Cell volume was assessed by COULTER COUNTER™ electronic cell sizing over the time course shown, using TM cells in suspension. Note that niflumic acid (NA) alone decreases volume of the TM cells and that exposing the cells to NA plus bumetamide causes a further decrease in TM cell volume. Data represent means of two experiments (all conditions shown tested in both experiments).

## O=C(O)c1cccnc1Nc1cccc(C(F)(F)F)c1 [niflumic acid]
Human TM cells [1]; human TM cell, 100 μM niflumic acid, calculated reversal potentials Cl −22 mV, K −82 mV
  reversal potential of the niflumic acid-activated conductance: very close to the Cl reversal potential; also recorded: quite close to the calculated reversal potential for Cl
Human TM cells [1]; human TM cells, niflumic acid 100 μM, K-free or Cl-free medium
  niflumic acid-activated conductance, dependence on bath ions: abolished in K-free medium but not in Cl-free medium
Human TM cells [1]; normal human TM cells, isotonic bath, niflumic acid 100 μM
  ion conductance of TM cells: activate an ion conductance; also recorded: rapid increase in conductance
Human TM cells [2]; niflumic acid 10 μM
  TM cell volume in isotonic medium (resting volume): decreased
Human TM cells [2]; niflumic acid 100 μM
  TM cell volume in isotonic medium (resting volume): decreased
